Data taken from patent publication US9498477B2, “Compositions and uses thereof to ameliorate pain” (Purdue Research Foundation, priority 2011, dated 2016).

Legend:
[1] = test system: Sprague Dawley rats models of spinal contusion injury; conditions: chronic SCI (5 months), single intraperitoneal dose 5 mg/kg body weight
Source text: (§1) Spinal contusion injury. Sprague Dawley rats are subjected to a spinal contusion injury according to the procedure described by Basso et al., Graded histological and locomotor outcomes after spinal cord contusion using the NYU weight-drop device versus transaction, Exp Neurol. […] After 20 weeks, the animals are divided into untreated injury and treated injury groups, each of which is compared to an uninjured control.
Test compound treatment. A solution of test compound, such as hydralazine hydrochloride (Sigma), is prepared with phosphate buffered saline. The solution is sterilized through a filter and stored at 4° C. […] Untreated animals are administered saline vehicle intraperitoneally. Blood pressures are monitored using a CODA 2 system (Kent Scientific Corp.).
Cold allodynia evaluation. Sprague Dawley rats models of spinal contusion injury are divided into untreated injury and treated injury groups. The untreated injury groups are injected daily with vehicle as described herein. The treated injury groups are injected daily with test compound as described herein. Uninjured controls, untreated injury groups, and treated injury groups are evaluated for pain according to the procedure described by Choi et al., Behavioral signs of ongoing pain and cold allodynia in a rat model of neuropathic pain, Pain 59:369-376 (1994).

[2] = test system: Sprague Dawley rats models of spinal contusion injury; conditions: chronic SCI (5 months), single intraperitoneal dose 5 mg/kg body weight; remark: listed apart in the source
Source text: as §1
Test compound treatment. […] The solution is sterilized through a filter and stored at 4° C. […] Untreated animals are administered saline vehicle intraperitoneally. Blood pressures are monitored using a CODA 2 system (Kent Scientific Corp.).
Mechanical allodynia evaluation. Sprague Dawley rats models of spinal contusion injury are divided into untreated injury and treated injury groups. The untreated injury groups are injected daily with vehicle as described herein. The treated injury groups are injected daily with test compound as described herein. Uninjured controls, untreated injury groups, and treated injury groups are evaluated for pain according to the procedure described by Choi et al., Behavioral signs of ongoing pain and cold allodynia in a rat model of neuropathic pain, Pain 59:369-376 (1994).

NNc1nncc2ccccc12 [hydralazine]
time to improvement of cold-induced pain after the injection [1]: ≤ 2 h
duration of efficacy of the treatment, cold allodynia ([1]; FIG. 2 panel B): at least 10 days
time to improvement of mechanical allodynia after the injection [2]: ≤ 2 days
duration of efficacy of the treatment, mechanical allodynia ([2]; FIG. 2 panel A): at least 10 days
